Reference: patent publication US12414569B2 (priority 2019, dated 2025)

Conditions: Citrus sinensis

Row | Structure (SMILES) | Distance Traveled [cm]
1 | Cc1nnc(C)s1 [2,5-Dimethyl-1,3,4-thiadiazole] | 14
2 | O=CC=Cc1ccccc1 [Cinnamaldehyde] | 12
3 | C=CCSSSCC=C [Diallyl Trisulfide] | 26
4 | C=CCSSCC=C [Diallyl disulfide] | 24
